We go through one molecule from publication PMC9376891 (Nature Communications, 2022).

For the test, the target named is Rae1_31-368-Nup98_157-213 heterodimer (Rae1-Nup98 complex) (Homo sapiens, UniProt P52948+P78406). Nature of the test: biochemical. It is filed as binding.

SMILES strings stand for the structures.

Sequence of Rae1_31-368-Nup98_157-213 heterodimer (Rae1-Nup98 complex) (P78406 31-368 limits assumed): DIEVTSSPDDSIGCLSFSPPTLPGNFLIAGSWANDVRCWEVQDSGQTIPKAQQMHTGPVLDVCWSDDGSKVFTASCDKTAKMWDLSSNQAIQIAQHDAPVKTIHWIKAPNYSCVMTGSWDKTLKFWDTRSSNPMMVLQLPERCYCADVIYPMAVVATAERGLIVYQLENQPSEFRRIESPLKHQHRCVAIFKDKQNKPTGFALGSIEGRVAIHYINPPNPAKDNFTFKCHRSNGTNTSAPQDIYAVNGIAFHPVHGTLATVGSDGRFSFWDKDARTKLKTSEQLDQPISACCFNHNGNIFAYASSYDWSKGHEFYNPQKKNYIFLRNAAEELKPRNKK
Sequence of Rae1_31-368-Nup98_157-213 heterodimer (Rae1-Nup98 complex) (P52948 157-213 partner limits assumed): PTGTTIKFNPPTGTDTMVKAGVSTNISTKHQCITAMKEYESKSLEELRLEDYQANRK

As to `CSCC[C@H](NC(=O)[C@H](CCC(=O)O)NC(=O)[C@@H](N)CC(=O)O)C(=O)N[C@@H](CC(=O)O)C(=O)N[C@H](C(=O)N[C@@H](Cc1c[nH]cn1)C(=O)N[C@@H](CC(=O)O)C(=O)N1CCC[C@H]1C(=O)N[C@@H](CC(N)=O)C(=O)N[C@@H](CCC(N)=O)C(=O)N[C@@H](CC(C)C)C(=O)N[C@@H](CCCNC(=N)N)C(=O)N[C@@H](Cc1ccc(O)cc1)C(=O)O)[C@@H](C)O` [VSV M NTE], the Kd (commonly a measure of binding affinity in units of concentration) amounted to 117 µM.
